From patent publication US20140179795A1, “Agent for Stabilizing Acetaminophen” (priority 2010, published 2014)

How the values were obtained:
[1] = Stability under high-temperature and high-pressure conditions (121° C., 1 hour): color tone, precipitation, related substances by HPLC; assay type: physicochemical; parameters: key to Color tone: +++: deep brown; ++: slightly deep brown; +: light brown; ±: very little discoloration; −: no discoloration; key to Precipitation: +: visible precipitates; −: no precipitates; details: 1 w/v % acetaminophen, 5 w/v % xylitol, pH 5, 1-hour treatment; for Total amount of related substances (%): HPLC peak area 225 nm
Procedure: Aqueous compositions containing glycine at the concentrations shown in Table 1 below, 1 w/v % acetaminophen, 5 w/v % xylitol and phosphoric acid (q.s.) and having the pH of 5 were heat-treated at 121° C. for 1 hour, and subsequently visually observed in terms of the color tone (the degree of discoloration) and the presence of precipitates.
In addition, the concentration of acetaminophen-related substances in each aqueous composition was determined by HPLC. The HPLC conditions were as follows.
(§1) The analysis was performed using liquid chromatography as described in the purity test of acetaminophen (related substances) prescribed in the manual of the Japanese pharmacopoeia, 15th edition. That is, each solution was subjected to HPLC using an octadecyl silica gel column and a mobile phase prepared by mixing methanol and a potassium dihydrogen phosphate solution, the peak areas at the detection wavelength of 225 nm were determined by an automatic integration method, and the percentage of the summed peak areas of the related substances to the total area of all peaks (total amount of related substances (%)) was calculated.

[2] = Effects of pH on stability under extreme conditions (60° C., 21-day storage); assay type: physicochemical; parameters: key to Color tone: +++: deep brown; ++: slightly deep brown; +: light brown; ±: very little discoloration; −: no discoloration; key to Precipitation: +: visible precipitates; −: no precipitates; details: 0.56 w/v % glycine, 0.22 w/v % citric acid, 0.9 w/v % NaCl; for Total amount of related substances (%): HPLC
Procedure: as §1
Aqueous solutions with the pHs shown in Table 4 below were prepared by mixing 1 w/v % of acetaminophen, 0.56 w/v % of glycine, 0.22 w/v % of citric acid, 0.9 w/v % of NaCl, and NaOH or H3PO4 (q.s.). The aqueous solutions were autoclaved at 121° C. for 20 minutes and then stored at 60° C. for 21 days. Subsequently, the aqueous solutions were visually observed in terms of the color tone (the degree of discoloration) and the presence of precipitates. In addition, the concentration of acetaminophen-related substances in each aqueous solution was determined by HPLC.

SMILES: CC(=O)Nc1ccc(O)cc1 [acetaminophen, N-(4-hydroxyphenyl)acetamide]
- Color tone ([1]; glycine 0 w/v %): +
- Precipitation ([1]; glycine 0 w/v %): −
- Total amount of related substances (%) ([1]; glycine 0 w/v %): 0.33%
- Color tone ([1]; glycine 0.14 w/v %): −
- Precipitation ([1]; glycine 0.14 w/v %): −
- Total amount of related substances (%) ([1]; glycine 0.14 w/v %): 0.03%
- Color tone ([1]; glycine 0.28 w/v %): −
- Precipitation ([1]; glycine 0.28 w/v %): −
- Total amount of related substances (%) ([1]; glycine 0.28 w/v %): 0.01%
- Color tone ([1]; glycine 0.56 w/v %): −
- Precipitation ([1]; glycine 0.56 w/v %): −
- Total amount of related substances (%) ([1]; glycine 0.56 w/v %): 0%
- Color tone ([2]; pH 2, 1 w/v % acetaminophen): +++
- Precipitation ([2]; pH 2, 1 w/v % acetaminophen): +
- Total amount of related substances (%) ([2]; pH 2, 1 w/v % acetaminophen): 12.18%
- Color tone ([2]; pH 3, 1 w/v % acetaminophen): ++
- Precipitation ([2]; pH 3, 1 w/v % acetaminophen): +
- Total amount of related substances (%) ([2]; pH 3, 1 w/v % acetaminophen): 5.44%
- Color tone ([2]; pH 4, 1 w/v % acetaminophen): ±
- Precipitation ([2]; pH 4, 1 w/v % acetaminophen): +
- Total amount of related substances (%) ([2]; pH 4, 1 w/v % acetaminophen): 0.8%
- Color tone ([2]; pH 5, 1 w/v % acetaminophen): ±
- Precipitation ([2]; pH 5, 1 w/v % acetaminophen): −
- Total amount of related substances (%) ([2]; pH 5, 1 w/v % acetaminophen): 0.05%
- Color tone ([2]; pH 6, 1 w/v % acetaminophen): +
- Precipitation ([2]; pH 6, 1 w/v % acetaminophen): −
- Total amount of related substances (%) ([2]; pH 6, 1 w/v % acetaminophen): 0.05%
- Color tone ([2]; pH 7, 1 w/v % acetaminophen): ++
- Precipitation ([2]; pH 7, 1 w/v % acetaminophen): −
- Total amount of related substances (%) ([2]; pH 7, 1 w/v % acetaminophen): 0.06%
- Color tone ([2]; pH 8, 1 w/v % acetaminophen): +++
- Precipitation ([2]; pH 8, 1 w/v % acetaminophen): +
- Total amount of related substances (%) ([2]; pH 8, 1 w/v % acetaminophen): 0.07%
